Data published in patent US8765729B2, “Cancer therapy” (Aeolus Sciences, Inc., priority 2001, dated 2014).

Assays:
[1] = SOD activity (cytochrome C method); type: biochemical
Source text: FIGS. 1A-1H show the structures of certain generic and specific definitions of compounds suitable for use in the present invention. With reference to FIG. 1C, mimetics of the invention can be of Formula I or Formula II, or dimeric forms thereof, an example of a dimeric form being shown in FIG. 1D. With reference to FIG. 1H, the SOD activities of certain of the depicted compounds are shown in Table 1 (as measured by the cytochrome C method): […]

[2] = system: R3230 mammary adenocarcinoma cells in Z-chambers; test: Tumor development in Z-chambers; type: in vivo, Fisher-344 rats; settings: 6 mg/kg i.p. 24 hours before implantation of 2.5 mil./ml cells
Experimental: FIG. 4. Animals were pretreated with different SOD mimetics (6 mg/kg i.p.) 24 hours before implantation of 2.5 mil./ml R3230 mammary adenocarcinoma cells in Z-chambers.
These chambers are constructed from customized plexi-glass rings with internal diameter of 10 mm and have a pore on the side. The two open surfaces are covered by nylon mesh (pore size 180 microns, Millipore, Mass.) and glued to the rings. Fibrinogen (Human fibrinogen, plasminogen depleted, CalBiochem) is prepared in DMEM, Gibco BRL) and a concentration of 4-5 mg/ml is utilized for the studies. Although the Fischer rats used in the study are immune competent, this purified batch of fibrinogen has been recognized to be very well conserved across species lines. It has already been shown that early angiogenic response to human fibrinogen is very similar to rat fibrinogen in fibrin gel chambers. The two different types of fibrinogen have also been tested in the Z-Chambers and no difference was found in angiogenic and healing response. Human fibrinogen was used.
The Fibrin Z-Chambers have fibrinogen solution poured inside the chamber through the pore and followed by 2 units of thrombin. […]
The Z-Chambers were harvested on day 1 or 12 post surgery. […] The depth of either the tumor tissue (tumor growth) or granulation tissue (wound healing) was measured with calipers on the 4×6 inch print. […]

[3] = system: oral mucositis induced by acute radiation; test: Oral mucositis induced by acute radiation in hamsters; type: in vivo
Experimental: Forty hamsters were given an acute radiation dose directed to their oral mucosa. Test materials will be applied by injection, or topically (three times per day) beginning the day before radiation and continuing until day 20. Mucositis were evaluated on alternate days beginning on day 6 (day of radiation=day 0) and continuing until the conclusion of the experiment on day 28.
Forty (40) hamsters were used. The hamsters were randomized into five (5) groups of eight (8) animals each. Each group was assigned a different treatment of 0.2 ml tid as follows:
Parameters measured included the mucositis score, weight change and survival. For the evaluation of mucositis, the animals were anesthetized with inhalation anesthetics ([…] or Halothane), and the left pouch everted. Mucositis was scored both clinically during the laboratory portion of the study and in a blinded manner (at the conclusion of the study). Clinical scoring was performed by visual comparison to a validated photographic scale, ranging from 0 for normal, to 5 for severe ulceration.
• 0 Pouch completely healthy. No erythema or vasodilation • 1 Light to […] erythema and vasodilation. No erosion of mucosa • 2 Severe erythema and vasodilation. Erosion of superficial aspects of mucosa leaving denuded areas. Decreased stippling of mucosa. • 3 Formation of off-white ulcers in one or more places. Ulcers may have a yellow/gray due to pseudomembrane. Cumulative size of ulcers should equal about ¼ of the pouch. Severe erythema and vasodilation. • 4 Cumulative seize of ulcers should equal about ½ of the pouch. Loss of pliability. Severe erythema and vasodilation. • 5 Virtually all of pouch is ulcerated. Loss of pliability (pouch can only partially be extracted from mouth) A score of 1-2 is considered to represent a mild stage of the disease, whereas a score 3-5 is considered to indicate moderate to severe mucositis. Results
Chi-square analysis of the total number of days the animals in each group spent with a score of three or more. This statistic is a measure of severity of ulceration, a clinically important outcome. Significant efficacy is indicated in red.

[4] = high dose IP (1 mg/ml tid), total days 192
[5] = high dose topical (1 mg/ml tid), total days 192
[6] = low dose IP (0.25 mg/ml tid), total days 192
[7] = low dose topical (0.25 mg/ml tid), total days 182

CCn1cc[n+](CC)c1-c1c2nc(c(-c3n(CC)cc[n+]3CC)c3ccc([nH]3)c(-c3n(CC)cc[n+]3CC)c3nc(c(-c4n(CC)cc[n+]4CC)c4ccc1[nH]4)C=C3)C=C2.[Mn+3] [Compound 10150, manganese(III)tetrakis(N-diethylimidazolium-2,5-yl)porphyrin]
SOD activity [1]: 14,789 U/mg | tumor development [2]: Significant (p<0.01) inhibition of tumor development | Percent Days > 3 ([3]; INC-01, 0.25 mg/ml IP, control 45.8, P 0.001): 18.8% | Percent Days > 3 ([3]; INC-01, 0.25 mg/ml Topical, control 45.8, P 0.953): 45.6% | Percent Days > 3 ([3]; INC-01, 1 mg/ml IP, control 45.8, P 0.005): 31.3% | Percent Days > 3 ([3]; INC-01, 1 mg/ml Topical, control 45.8, P 0.148): 38% | Percent Days > 3 ([3]; INC-02, 0.25 mg/ml IP, control 43.3, P 0.004): 28.6% | Percent Days > 3 ([3]; INC-02, 1.5 mg/ml IP, control 43.3, P 0.002): 27.6% | Percent Days > 3 ([3]; INC-02, 1.5 mg/ml Topical, control 43.3, P 0.298): 37.5% | Percent Days > 3 ([3]; INC-02, 5 mg/ml Topical, control 43.3, P 0.002): 27.6% | Percent Days > 3 ([3]; INC-03, 1 mg/ml IP, control 33.3, P 0.113): 38.1% | Percent Days > 3 ([3]; INC-04, 0.25 mg/ml IP, control 43.9, P 0.485): 47.3% | Percent Days > 3 ([3]; INC-05, 0.25 mg/ml IP, control 68.8, P 0.001): 42.1% | Percent Days > 3 ([3]; INC-05, 1.5 mg/ml IP, control 68.8, P 0.001): 33.3% | reduction in the percent of days with Mucositis Scores ≧3 ([3]; IP, 0.2 ml of 0.25 mg/ml TID, 1.5 mg/kg/day): 59% | Days < 3 [3, 4]: 132 | Days >= 3 [3, 4]: 60 | % Days >= 3 ([3]; high dose IP, control 45.8, P 0.005): 31.3% | Days < 3 [3, 5]: 119 | Days >= 3 [3, 5]: 73 | % Days >= 3 ([3]; high dose topical, control 45.8, P 0.148): 38.0% | mucositis severity ([3]; high dose topical, not statistically significant): tended to reduce mucositis severity | Days < 3 [3, 6]: 156 | Days >= 3 [3, 6]: 36 | % Days >= 3 ([3]; low dose IP, control 45.8, P <0.001): 18.8% | Days < 3 [3, 7]: 99 | Days >= 3 [3, 7]: 83 | % Days >= 3 ([3]; low dose topical, control 45.8, P 0.953): 45.6% | severity of mucositis associated with radiation therapy ([3]; most evident with IP administration): markedly reduces the severity of mucositis | incidence of severe mucositis ([3]; topical dosing, both concentrations): not in either group treated by topical dosing

CuZn-SOD: dimeric copper- and zinc-containing enzyme found in the cytosol of all cells
SOD activity [1]: 2,200 U/mg
